According to ChEMBL document CHEMBL4806958, “Anti-cancer/anti-fibrosis compounds” (2020):
Values belong to the compound of their own block, whether it stands above or below them. Calls of active or inactive are those of the source. The calls are words filed in the database; no cut-off is given here.

What was measured:
MV4-11 [1] = test: Down regulation of phosphorylated-STAT5 level in human MV-4-11 cells after 48 hrs by Western blotting analysis; format: functional, cell-based; conditions: dose 0.03-3 µM
[2] = target: Cyclin-dependent kinase 19 (Homo sapiens, UniProt Q9BWU1); test: Inhibition of kinase tracer 236 binding to GST-tagged CDK19 (unknown origin) incubated for 60 mins by LanthaScreen Eu-Kinase binding assay
MOLM-14 [3] = test: Down regulation of phosphorylated-STAT1 level in mouse xenografted with human MOLM-14 cells by Western blotting analysis; format: functional, cell-based; conditions: dose 10-100 mg/kg
NCI-H2052 = test: Cytotoxicity against human H2052 cells assessed as reduction in cell viability and measured after 7 days by Celltiter-glo luminescent cell viability assay; format: functional, cell-based; conditions: NCI-H2052, 168 h
[4] = Toxicity in Ncr nu/nu mouse xenografted with human MV-4-11 cells assessed as effect on body weight at 50 mg/kg, po administered twice a day for 21 days and measured for every 3 days; format: organism-based; conditions: in vivo, 504 h, time 21 day
MOLM-14 [5] = test: Cytotoxicity against human MOLM-14 cells assessed as reduction in cell viability measured after 7 days by Celltiter-glo luminescent cell viability assay; format: functional, cell-based; conditions: MOLM-14, 168 h
CDK8/Cyclin C = CDK8/Cyclin C (Homo sapiens, UniProt P49336); test: Inhibition of kinase tracer 236 binding to His-tagged CDK8/cyclin C (unknown origin) incubated for 60 mins by LanthaScreen Eu-Kinase binding assay; format: protein-complex assay
SET-2 = test: Cytotoxicity against human SET2 cells assessed as reduction in cell viability measured after 7 days by Celltiter-glo luminescent cell viability assay; format: functional, cell-based; conditions: SET-2, 168 h
MV4-11 [6] = test: Down regulation of phosphorylated-STAT3 level in human MV-4-11 cells after 48 hrs by Western blotting analysis; format: functional, cell-based; conditions: dose 0.03-3 µM
[7] = Cytotoxicity against human H290 cells assessed as reduction in cell viability and measured after 7 days by Celltiter-glo luminescent cell viability assay; format: functional, cell-based; conditions: NCI-H290, 168 h
MV4-11 [8] = test: Down regulation of CYR61 level in human MV-4-11 cells at 0.03 to 3 uM after 48 hrs by Western blotting analysis; format: functional, cell-based; conditions: dose 0.03-3 µM
MOLM-14 [9] = test: Down regulation of phosphorylated-STAT5 level in human MOLM-14 cells at 0.03 to 3 uM after 24 hrs by Western blotting analysis; format: functional, cell-based; conditions: dose 0.03-3 µM
RS4-11 = test: Cytotoxicity against human RS4-11 cells assessed as reduction in cell viability measured after 7 days by Celltiter-glo luminescent cell viability assay; format: functional, cell-based; conditions: RS4-11, 168 h
Huh-7 = test: Cytotoxicity against human Huh-7 cells assessed as reduction in cell viability and measured after 7 days by Celltiter-glo luminescent cell viability assay; format: functional, cell-based; conditions: Huh-7, 168 h
HCT-116 = test: Cytotoxicity against human HCT-116 cells assessed as reduction in cell viability measured after 7 days by Celltiter-glo luminescent cell viability assay; format: functional, cell-based; conditions: HCT-116, 168 h
[10] = Cytotoxicity against human H2030-Brm3 cells assessed as reduction in cell viability measured after 7 days by Celltiter-glo luminescent cell viability assay; format: functional, cell-based; conditions: H2030-BrM3, 168 h
COLO357 = test: Cytotoxicity against human COLO-357 cells assessed as reduction in cell viability and measured after 7 days by Celltiter-glo luminescent cell viability assay; format: functional, cell-based; conditions: COLO357, 168 h
U-251 = test: Cytotoxicity against human U251 cells assessed as reduction in cell viability and measured after 7 days by Celltiter-glo luminescent cell viability assay; format: functional, cell-based; conditions: U-251, 168 h
MV4-11 [11] = test: Down regulation of phosphorylated-STAT3 level in human MV-4-11 cells after 24 hrs by Western blotting analysis; format: functional, cell-based; conditions: dose 0.03-10 µM
MOLM-14 [12] = test: Down regulation of phosphorylated-STAT5 level in mouse xenografted with human MOLM-14 cells at 50 mg/kg, po administered twice a day for 21 days by Western blotting analysis; format: functional, organism-based; conditions: time 21.0 day
MOLM-14 [13] = test: Down regulation of phosphorylated-STAT1 level in human MOLM-14 cells at 0.03 to 3 uM after 48 hrs by Western blotting analysis; format: functional, cell-based; conditions: dose 0.03-3 µM
MV4-11 [14] = test: Down regulation of phosphorylated-STAT5 level in human MV-4-11 cells after 24 hrs by Western blotting analysis; format: functional, cell-based; conditions: dose 0.03-10 µM
[15] = Cytotoxicity against human A549-Brm3 cells assessed as reduction in cell viability measured after 7 days by Celltiter-glo luminescent cell viability assay; format: functional, cell-based; conditions: A549-BrM3, 168 h
A204 = test: Cytotoxicity against human A204 cells assessed as reduction in cell viability and measured after 7 days by Celltiter-glo luminescent cell viability assay; format: functional, cell-based; conditions: A204, 168 h
MOLM-14 [16] = test: Down regulation of phosphorylated-STAT3 level in human MOLM-14 cells at 0.03 to 3 uM after 24 hrs by Western blotting analysis; format: functional, cell-based; conditions: dose 0.03-3 µM
MOLM-14 [17] = test: Down regulation of phosphorylated-STAT3 level in human MOLM-14 cells at 0.03 to 3 uM after 48 hrs by Western blotting analysis; format: functional, cell-based; conditions: dose 0.03-3 µM
[18] = Cytotoxicity against human CLL-119 cells assessed as reduction in cell viability measured after 7 days by Celltiter-glo luminescent cell viability assay; format: functional, cell-based; conditions: CLL-119, 168 h
MSTO-211H = test: Cytotoxicity against human MSTO-211H cells assessed as reduction in cell viability and measured after 7 days by Celltiter-glo luminescent cell viability assay; format: functional, cell-based; conditions: 168 h
COLO 205 = test: Cytotoxicity against human COLO-205 cells assessed as reduction in cell viability measured after 7 days by Celltiter-glo luminescent cell viability assay; format: functional, cell-based; conditions: COLO 205, 168 h
[19] = target: Homeodomain-interacting protein kinase 2 (Homo sapiens, UniProt Q9H2X6); test: Inhibition of HIPK2 (unknown origin) using Ser/Thr 09 as substrate incubated for 60 mins in presence of ATP by Z'-Lyte assay
[20] = Toxicity in athymic nude mouse xenografted with human MOLM-14 cells assessed as effect on body weight at 50 mg/kg, po administered twice a day with 5 days on and 2 days off dosing schedule for 21 days and measured for every other day; format: organism-based; conditions: in vivo, 504 h, time 3 weeks
OE33 = test: Cytotoxicity against human OE33 cells assessed as reduction in cell viability measured after 7 days by Celltiter-glo luminescent cell viability assay; format: functional, cell-based; conditions: OE33, 168 h
A549 = test: Cytotoxicity against human A549 cells assessed as reduction in cell viability measured after 7 days by Celltiter-glo luminescent cell viability assay; format: functional, cell-based; conditions: A549, 168 h
MV4-11 [21] = test: Down regulation of phosphorylated-STAT1 level in human MV-4-11 cells after 48 hrs by Western blotting analysis; format: functional, cell-based; conditions: dose 0.03-3 µM
MOLM-14 [22] = test: Antitumor activity against human MOLM-14 cells xenografted in athymic nude mouse assessed as tumor growth inhibition at 50 mg/kg, po administered twice a day with 5 days on and 2 days off dosing schedule for 3 weeks and measured every other day; format: functional, organism-based
MOLM-14 [23] = test: Down regulation of phosphorylated-STAT1 level in human MOLM-14 cells at 0.03 to 3 uM after 24 hrs by Western blotting analysis; format: functional, cell-based; conditions: dose 0.03-3 µM
MV4-11 [24] = test: Antitumor activity against human MV-4-11 cells xenografted in NCr nu/nu mouse assessed as tumor growth inhibition at 50 mg/kg, po administered twice a day for 21 days and measured for every 3 days; format: functional, organism-based; conditions: time 21.0 day
MV4-11 [25] = test: Down regulation of YAP level in human MV-4-11 cells at 0.03 to 3 uM after 48 hrs by Western blotting analysis; format: functional, cell-based; conditions: dose 0.03-3 µM
MV4-11 [26] = test: Down regulation of C-MYC level in human MV-4-11 cells at 0.03 to 3 uM after 48 hrs by Western blotting analysis; format: functional, cell-based; conditions: dose 0.03-3 µM
BT-474 = test: Cytotoxicity against human BT474 cells assessed as reduction in cell viability and measured after 7 days by Celltiter-glo luminescent cell viability assay; format: functional, cell-based; conditions: BT-474, 168 h
SW-620 [27] = test: Cytotoxicity against human SW620 cells assessed as reduction in cell viability measured after 7 days by Celltiter-glo luminescent cell viability assay; format: functional, cell-based; conditions: SW-620, 168 h
MCF7 = test: Cytotoxicity against human MCF7 cells assessed as reduction in cell viability and measured after 7 days by Celltiter-glo luminescent cell viability assay; format: functional, cell-based; conditions: MCF7, 168 h
MV4-11 [28] = test: Down regulation of phosphorylated-STAT1 level in human MV-4-11 cells after 24 hrs by Western blotting analysis; format: functional, cell-based; conditions: dose 0.03-10 µM
MV4-11 [29] = test: Down regulation of MCL-1 level in human MV-4-11 cells at 0.03 to 3 uM after 48 hrs by Western blotting analysis; format: functional, cell-based; conditions: dose 0.03-3 µM
[30] = Cytotoxicity against human TG-1 cells assessed as reduction in cell viability measured after 7 days by Celltiter-glo luminescent cell viability assay; format: functional, cell-based; conditions: TG1, 168 h
MOLM-14 [31] = test: Down regulation of phosphorylated-STAT5 level in human MOLM-14 cells at 0.03 to 3 uM after 48 hrs by Western blotting analysis; format: functional, cell-based; conditions: dose 0.03-3 µM
MV4-11 [32] = test: Down regulation of CTGF level in human MV-4-11 cells at 0.03 to 3 uM after 48 hrs by Western blotting analysis; format: functional, cell-based; conditions: dose 0.03-3 µM
MV4-11 [33] = test: Cytotoxicity against human MV-4-11 cells assessed as reduction in cell viability measured after 7 days by Celltiter-glo luminescent cell viability assay; format: functional, cell-based; conditions: MV4-11, 168 h
[34] = target: Casein kinase II subunit alpha (Homo sapiens, UniProt P68400); test: Inhibition of CSNK2A1(unknown origin) using Ser/Thr 11 as substrate incubated for 60 mins in presence of ATP by Z'-LYTE assay
MOLM-14 [35] = test: Down regulation of phosphorylated-STAT1 level in mouse xenografted with human MOLM-14 cells at 50 mg/kg, po administered twice a day for 21 days by Western blotting analysis; format: functional, organism-based; conditions: time 21.0 day
SW-620 [36] = test: Cytotoxicity against human SW620 cells assessed as reduction in cell viability measured after 7 days in presence of glycolysis inhibitor 2-DG by Celltiter-glo luminescent cell viability assay; format: functional, cell-based; conditions: SW-620, 168 h
HeLa = test: Cytotoxicity against human HeLa cells assessed as reduction in cell viability measured after 7 days by Celltiter-glo luminescent cell viability assay; format: functional, cell-based; conditions: 168 h

Casein kinase II subunit alpha, sequence (P68400 whole entry): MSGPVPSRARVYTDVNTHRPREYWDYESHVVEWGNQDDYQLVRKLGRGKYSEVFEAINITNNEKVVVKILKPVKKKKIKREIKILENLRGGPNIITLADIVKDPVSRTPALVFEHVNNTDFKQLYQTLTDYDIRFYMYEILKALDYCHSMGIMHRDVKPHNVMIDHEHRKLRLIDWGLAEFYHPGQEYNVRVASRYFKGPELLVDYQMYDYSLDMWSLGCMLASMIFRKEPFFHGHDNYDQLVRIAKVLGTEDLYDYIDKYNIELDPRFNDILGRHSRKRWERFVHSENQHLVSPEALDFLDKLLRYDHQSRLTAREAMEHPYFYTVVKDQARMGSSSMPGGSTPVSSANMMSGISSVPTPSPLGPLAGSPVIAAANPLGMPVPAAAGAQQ
Homeodomain-interacting protein kinase 2, sequence (Q9H2X6 whole entry): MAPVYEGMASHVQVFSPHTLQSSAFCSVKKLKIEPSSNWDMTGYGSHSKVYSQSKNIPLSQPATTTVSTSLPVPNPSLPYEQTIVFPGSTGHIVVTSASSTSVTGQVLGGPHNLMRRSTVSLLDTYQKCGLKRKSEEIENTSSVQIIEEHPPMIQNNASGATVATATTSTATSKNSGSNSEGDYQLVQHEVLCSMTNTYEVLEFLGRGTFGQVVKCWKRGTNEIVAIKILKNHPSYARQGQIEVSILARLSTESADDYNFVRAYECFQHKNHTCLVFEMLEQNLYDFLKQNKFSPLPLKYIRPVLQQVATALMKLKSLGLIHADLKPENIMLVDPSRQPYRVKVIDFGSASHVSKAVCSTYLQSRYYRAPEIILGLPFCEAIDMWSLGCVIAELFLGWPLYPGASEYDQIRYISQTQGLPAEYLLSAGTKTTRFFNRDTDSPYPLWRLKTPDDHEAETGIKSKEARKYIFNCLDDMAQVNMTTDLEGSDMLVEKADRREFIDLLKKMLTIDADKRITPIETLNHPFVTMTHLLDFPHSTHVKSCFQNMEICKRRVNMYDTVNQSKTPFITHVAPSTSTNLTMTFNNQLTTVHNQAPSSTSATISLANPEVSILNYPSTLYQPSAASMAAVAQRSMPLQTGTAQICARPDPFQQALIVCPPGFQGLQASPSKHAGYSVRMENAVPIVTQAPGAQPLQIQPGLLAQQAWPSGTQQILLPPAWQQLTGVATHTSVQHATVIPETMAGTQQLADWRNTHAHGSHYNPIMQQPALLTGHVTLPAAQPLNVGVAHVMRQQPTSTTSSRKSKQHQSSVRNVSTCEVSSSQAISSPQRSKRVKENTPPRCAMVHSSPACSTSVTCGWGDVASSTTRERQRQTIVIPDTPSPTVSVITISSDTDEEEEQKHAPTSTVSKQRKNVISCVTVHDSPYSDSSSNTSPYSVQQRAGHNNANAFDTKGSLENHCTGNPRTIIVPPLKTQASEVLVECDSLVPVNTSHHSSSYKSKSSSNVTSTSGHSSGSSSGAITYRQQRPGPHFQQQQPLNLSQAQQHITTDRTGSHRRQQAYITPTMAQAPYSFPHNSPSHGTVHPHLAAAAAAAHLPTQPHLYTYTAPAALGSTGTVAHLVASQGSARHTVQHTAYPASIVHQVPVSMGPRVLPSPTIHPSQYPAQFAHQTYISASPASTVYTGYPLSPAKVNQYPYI
Cyclin-dependent kinase 19, sequence (Q9BWU1 whole entry): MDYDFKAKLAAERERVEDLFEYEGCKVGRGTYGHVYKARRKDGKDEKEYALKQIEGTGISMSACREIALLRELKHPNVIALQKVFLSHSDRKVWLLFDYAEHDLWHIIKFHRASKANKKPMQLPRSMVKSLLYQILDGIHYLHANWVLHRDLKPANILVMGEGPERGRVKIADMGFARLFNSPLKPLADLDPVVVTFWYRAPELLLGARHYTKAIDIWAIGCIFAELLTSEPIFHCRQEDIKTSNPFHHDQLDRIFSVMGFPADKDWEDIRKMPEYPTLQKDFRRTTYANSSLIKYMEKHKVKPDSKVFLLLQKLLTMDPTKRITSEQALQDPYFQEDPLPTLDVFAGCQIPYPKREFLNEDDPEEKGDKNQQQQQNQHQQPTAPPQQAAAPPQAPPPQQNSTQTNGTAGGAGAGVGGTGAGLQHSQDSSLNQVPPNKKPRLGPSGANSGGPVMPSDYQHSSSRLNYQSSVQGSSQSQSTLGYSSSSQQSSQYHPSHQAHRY
CDK8/Cyclin C, sequence (P49336 whole entry): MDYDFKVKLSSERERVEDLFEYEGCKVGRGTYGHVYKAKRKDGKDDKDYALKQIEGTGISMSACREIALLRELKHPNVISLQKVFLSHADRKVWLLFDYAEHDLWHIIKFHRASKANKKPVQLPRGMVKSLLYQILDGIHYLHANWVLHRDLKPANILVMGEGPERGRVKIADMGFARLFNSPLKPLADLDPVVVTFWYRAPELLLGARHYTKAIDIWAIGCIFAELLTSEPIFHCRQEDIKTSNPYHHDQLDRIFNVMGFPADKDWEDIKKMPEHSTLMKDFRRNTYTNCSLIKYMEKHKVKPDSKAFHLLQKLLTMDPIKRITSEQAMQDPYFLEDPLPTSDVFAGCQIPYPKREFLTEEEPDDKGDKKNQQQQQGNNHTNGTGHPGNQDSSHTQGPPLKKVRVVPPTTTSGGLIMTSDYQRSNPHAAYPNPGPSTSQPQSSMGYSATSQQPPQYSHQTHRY
CDK8/Cyclin C, sequence (P24863 whole entry, further chain): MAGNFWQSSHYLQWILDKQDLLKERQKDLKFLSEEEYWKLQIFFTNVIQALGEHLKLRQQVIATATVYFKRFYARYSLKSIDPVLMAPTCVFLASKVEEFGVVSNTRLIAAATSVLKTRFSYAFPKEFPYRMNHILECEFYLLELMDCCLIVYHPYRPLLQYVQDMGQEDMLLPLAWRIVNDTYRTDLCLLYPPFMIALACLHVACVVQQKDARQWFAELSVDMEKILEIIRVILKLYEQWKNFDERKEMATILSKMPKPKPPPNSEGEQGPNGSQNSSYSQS

- IC50 [2]: < 300 nM
- IC50 (CDK8/Cyclin C): < 300 nM
- IC50 [19]: < 300 nM
- IC50 [34]: < 300 nM
Compound: Nc1nccc2c(Br)cc3cc(C(=O)[O-])ccc3c12.[Na+]
- Activity (MV4-11 [1]): Dose-Dependent Effect
- Activity (MOLM-14 [3]): Dose-Dependent Effect
- IC50 (NCI-H2052): 1000 nM
- Activity [4]: Non-Toxic
- IC50 (MOLM-14 [5]): < 1000 nM
- IC50 (SET-2): < 1000 nM
- Activity (MV4-11 [6]): Dose-Dependent Effect
- IC50 [7]: 1000 nM
- Activity (MV4-11 [8]): Active
- Activity (MOLM-14 [9]): Active
- IC50 (RS4-11): < 1000 nM
- IC50 (Huh-7): < 1000 nM
- IC50 (HCT-116): 1000 nM
- IC50 [10]: < 1000 nM
- IC50 (COLO357): 1000 nM
- IC50 (U-251): 1000 nM
- Activity (MV4-11 [11]): Dose-Dependent Effect
- Activity (MOLM-14 [12]): Active
- Activity (MOLM-14 [13]): Active
- Activity (MV4-11 [14]): Dose-Dependent Effect
- IC50 [15]: 1000 nM
- IC50 (A204): 1000 nM
- Activity (MOLM-14 [16]): Active
- Activity (MOLM-14 [17]): Active
- IC50 [18]: < 1000 nM
- IC50 (MSTO-211H): 1000 nM
- IC50 (COLO 205): < 1000 nM
- Activity [20]: Non-Toxic
- IC50 (OE33): < 1000 nM
- IC50 (A549): 1000 nM
- Activity (MV4-11 [21]): Dose-Dependent Effect
- Activity (MOLM-14 [22]): Active
- Activity (MOLM-14 [23]): Active
- Activity (MV4-11 [24]): Active
- Activity (MV4-11 [25]): Active
- Activity (MV4-11 [26]): Active
- IC50 (BT-474): 1000 nM
- IC50 (SW-620 [27]): 1000 nM
- IC50 (MCF7): 1000 nM
- Activity (MV4-11 [28]): Dose-Dependent Effect
- Activity (MV4-11 [29]): Active
- IC50 [30]: < 1000 nM
- Activity (MOLM-14 [31]): Active
- Activity (MV4-11 [32]): Active
- IC50 (MV4-11 [33]): < 1000 nM
- Activity (MOLM-14 [35]): Active
- IC50 (SW-620 [36]): < 1000 nM
- IC50 (HeLa): 1000 nM

- IC50 [19]: < 300 nM
Compound: Nc1nccc2cc(Br)c3cc(C(=O)O)ccc3c12

- IC50 [34]: < 300 nM
Compound: O=C(O)c1ccc2c(c1)cc([N+](=O)[O-])c1ccncc12

- IC50 [34]: < 300 nM
Compound: O=C(O)c1ccc2c(c1)cc(Cl)c1ccncc12

- IC50 [34]: < 300 nM
Compound: O=C(O)c1ccc2c(ccc3ccncc32)c1

- IC50 [34]: < 300 nM
Compound: N#Cc1cc2cc(C(=O)O)ccc2c2cnccc12

- IC50 [19]: > 5000 nM
- IC50 [34]: < 300 nM
Compound: N[C@@H]1CCCN(c2cc3cc(C(=O)O)ccc3c3cnccc23)C1
